Source: patent US9539243B2, “Triazole compounds that modulate HSP90 activity” (Synta Pharmaceuticals Corp., priority 2008, dated 2017)

Test system: Her2
Experiment: Her2 degradation in BT-474 cells by Western blot (Method 1)
Assay type: cell-based, Human
Conditions: 0.5 μM, overnight
Description: Human high-Her2 breast carcinoma BT474 (HTB-20), SK-BR-3 (HTB-30) and MCF-7 breast carcinoma (HTB-22) from American Type Culture Collection, Va., USA were grown in Dulbecco's modified Eagle's medium with 4 mM L-glutamine and antibiotics (100 IU/ml penicillin and 100 μg/ml streptomycine; GibcoBRL). To obtain exponential cell growth, cells were trypsinized, counted and seeded at a cell density of 0.5×10^6 cells/ml regularly, every 3 days. All experiments were performed on day 1 after cell passage.
BT-474 cells are treated with 0.5 μM, 2 μM, or 5 μM of 17AAG (a positive control) or 0.5 μM, 2 μM, or 5 μM of a compound of the invention overnight in DMEM medium. After treatment, each cytoplasmic sample is prepared from 1×10^6 cells by incubation of cell lysis buffer (#9803, Cell Signaling Technology) on ice for 10 minutes. The resulting supernatant used as the cytosol fractions is dissolved with sample buffer for SDS-PAGE and run on a SDS-PAGE gel, blotted onto a nitrocellulose membrane by using semi-dry transfer. Non-specific binding to nitrocellulose is blocked with 5% skim milk in TBS with 0.5% Tween at room temperature for 1 hour, then probed with anti-Her2/ErB2 mAb (rabbit IgG, #2242, Cell Signaling) and anti-Tubulin (T9026, Sigma) as housekeeping control protein. […]

C=CCNC1=C2C[C@@H](C)C[C@H](OC)[C@H](O)[C@@H](C)/C=C(\C)[C@H](OC(N)=O)[C@@H](OC)/C=C\C=C(/C)C(=O)NC(=CC1=O)C2=O [Compound 17AAG, 17-allylamino-17-demethoxygeldanamycin]
degradation of Her2: partial degradation of Her2
